Source: ChEMBL document CHEMBL1125599, “Cholinergic activity of acetylenic imidazoles and related compounds” (J Med Chem, 1991)

System: Mus musculus
Assay: ED50 value as cholinergic agonism by measuring lacrimation in mice (in vivo)
Type: functional

| SMILES | ED50 [mg/kg] |
| --- | --- |
| CC1CCC(=O)N1CC#CCn1ccnc1 (stereo not given) | > 100 |
| CCOC(=O)N(C)C(C)C#CCn1ccnc1 (stereo not given) | > 100 |
| CC(C#CCn1ccnc1)N1CCN(C)C1=O (stereo not given) | > 100 |
| O=C1CCCN1CC#CCn1cccn1 | > 100 |
| CC(=O)N(C)CC#CCn1ccnc1 | 1.4 |
| O=C1NCCN1CC#CCn1ccnc1 | 30 |
| O=C1CCCN1CC#CCn1cncn1 | > 100 |
| CC(=O)NCC#CCn1cncc1C | 66 |
| O=C1CCCN1CC#CCN1CCCC1 [OXOTREMORINE] | 0.28 |
| CC(=O)NCC#CCn1ccnc1 | > 100 |
| O=C1CCCN1CC#CCn1cnc2ccccc21 | > 100 |

System: Mus musculus
Assay: ED50 value determined as oxotremorine antagonism by measuring salivation in mice (in vivo)
Type: functional

| SMILES | ED50 [mg/kg] |
| --- | --- |
| CC1CCC(=O)N1CC#CCn1ccnc1 (stereo not given) | 1.1 |
| CCOC(=O)N(C)C(C)C#CCn1ccnc1 (stereo not given) | 66 |
| CC(C#CCn1ccnc1)N1CCN(C)C1=O (stereo not given) | 21 |
| O=C1CCCN1CC#CCn1cccn1 | > 100 |
| CC(=O)N(C)CC#CCn1ccnc1 | > 100 |
| O=C1NCCN1CC#CCn1ccnc1 | > 100 |
| O=C1CCCN1CC#CCn1cncn1 | > 100 |
| CC(=O)NCC#CCn1cncc1C | 66 |
| CC(=O)NCC#CCn1ccnc1 | > 100 |
| O=C1CCCN1CC#CCn1cnc2ccccc21 | > 100 |

System: Mus musculus
Assay: ED50 value as cholinergic agonist by measuring tremors in mice (in vivo)
Type: functional

| SMILES | ED50 [mg/kg] |
| --- | --- |
| CC1CCC(=O)N1CC#CCn1ccnc1 (stereo not given) | > 100 |
| CCOC(=O)N(C)C(C)C#CCn1ccnc1 (stereo not given) | > 100 |
| CC(C#CCn1ccnc1)N1CCN(C)C1=O (stereo not given) | 97 |
| O=C1CCCN1CC#CCn1cccn1 | > 100 |
| CC(=O)N(C)CC#CCn1ccnc1 | 0.97 |
| O=C1CCCN1CC#CCn1cncn1 | > 100 |
| O=C1CCCN1CC#CCn1cnc2ccccc21 | > 100 |

Biological target: Muscarinic acetylcholine receptor
Assay: Binding affinity to muscarinic acetylcholine receptor was determined in presence of [3H]QNB radioligand (in vitro)
Type: protein assay

| SMILES | Ki [µM] |
| --- | --- |
| CC1CCC(=O)N1CC#CCn1ccnc1 (stereo not given) | 0.171 |
| CCOC(=O)N(C)C(C)C#CCn1ccnc1 (stereo not given) | > 10 |
| CC(C#CCn1ccnc1)N1CCN(C)C1=O (stereo not given) | 4.009 |
| O=C1CCCN1CC#CCn1cccn1 | > 10 |
| CC(=O)N(C)CC#CCn1ccnc1 | > 10 |
| O=C1NCCN1CC#CCn1ccnc1 | > 10 |
| O=C1CCCN1CC#CCn1cncn1 | > 10 |
| CC(=O)NCC#CCn1cncc1C | > 10 |
| O=C1CCCN1CC#CCN1CCCC1 [OXOTREMORINE] | 0.193 |
| CC(=O)NCC#CCn1ccnc1 | > 10 |
| O=C1CCCN1CC#CCn1cnc2ccccc21 | > 10 |

System: Mus musculus
Assay: ED50 value determined as oxotremorine antagonism by measuring tremors in mice (in vivo)
Type: functional

| SMILES | ED50 [mg/kg] |
| --- | --- |
| CCOC(=O)N(C)C(C)C#CCn1ccnc1 (stereo not given) | > 100 |
| CC(C#CCn1ccnc1)N1CCN(C)C1=O (stereo not given) | > 100 |
| O=C1CCCN1CC#CCn1cccn1 | > 100 |
| O=C1NCCN1CC#CCn1ccnc1 | > 100 |
| O=C1CCCN1CC#CCn1cncn1 | > 100 |
| CC(=O)NCC#CCn1cncc1C | > 100 |
| CC(=O)NCC#CCn1ccnc1 | > 100 |
| O=C1CCCN1CC#CCn1cnc2ccccc21 | > 100 |

System: Mus musculus
Assay: ED50 value as cholinergic agonist by measuring salivation in mice (in vivo)
Type: functional

| SMILES | ED50 [mg/kg] |
| --- | --- |
| CC1CCC(=O)N1CC#CCn1ccnc1 (stereo not given) | > 100 |
| CCOC(=O)N(C)C(C)C#CCn1ccnc1 (stereo not given) | > 100 |
| O=C1CCCN1CC#CCn1cccn1 | > 100 |
| CC(=O)N(C)CC#CCn1ccnc1 | 1.4 |
| O=C1NCCN1CC#CCn1ccnc1 | 17.3 |
| O=C1CCCN1CC#CCn1cncn1 | > 100 |
| CC(=O)NCC#CCn1cncc1C | > 100 |
| O=C1CCCN1CC#CCN1CCCC1 [OXOTREMORINE] | 0.221 |
| CC(=O)NCC#CCn1ccnc1 | > 100 |
| O=C1CCCN1CC#CCn1cnc2ccccc21 | > 100 |

Biological target: Muscarinic acetylcholine receptor (Rattus norvegicus) (UniProt P08482+P08483+P08485+P08911+P10980)
Assay: Ratio of Ki value for QNB to that of Ki value for Oxo-M.
Type: protein assay

| SMILES | Ki ratio |
| --- | --- |
| CC1CCC(=O)N1CC#CCn1ccnc1 (stereo not given) | 7.4 |
| CC(C#CCn1ccnc1)N1CCN(C)C1=O (stereo not given) | 33 |
| O=C1CCCN1CC#CCN1CCCC1 [OXOTREMORINE] | 386 |

System: Mus musculus
Assay: ED50 value determined as oxotremorine antagonism by measuring lacrimation in mice (in vivo)
Type: functional

| SMILES | ED50 [mg/kg] |
| --- | --- |
| CC1CCC(=O)N1CC#CCn1ccnc1 (stereo not given) | 0.54 |
| CCOC(=O)N(C)C(C)C#CCn1ccnc1 (stereo not given) | 54 |
| CC(C#CCn1ccnc1)N1CCN(C)C1=O (stereo not given) | 21 |
| O=C1CCCN1CC#CCn1cccn1 | > 100 |
| CC(=O)N(C)CC#CCn1ccnc1 | > 100 |
| O=C1NCCN1CC#CCn1ccnc1 | > 100 |
| O=C1CCCN1CC#CCn1cncn1 | > 100 |
| CC(=O)NCC#CCn1cncc1C | 66 |
| CC(=O)NCC#CCn1ccnc1 | > 100 |
| O=C1CCCN1CC#CCn1cnc2ccccc21 | 80 |

Biological target: Muscarinic acetylcholine receptor
Assay: Binding affinity to muscarinic acetylcholine receptor was determined in presence of [3H]OXO-M radioligand (in vitro)
Type: protein assay

| SMILES | Ki [µM] |
| --- | --- |
| CC1CCC(=O)N1CC#CCn1ccnc1 (stereo not given) | 0.023 |
| CCOC(=O)N(C)C(C)C#CCn1ccnc1 (stereo not given) | 0.273 |
| CC(C#CCn1ccnc1)N1CCN(C)C1=O (stereo not given) | 0.12 |
| O=C1CCCN1CC#CCn1cccn1 | > 10 |
| CC(=O)N(C)CC#CCn1ccnc1 | 0.00192 |
| O=C1NCCN1CC#CCn1ccnc1 | 0.062 |
| O=C1CCCN1CC#CCn1cncn1 | > 10 |
| CC(=O)NCC#CCn1cncc1C | 0.213 |
| CC(=O)NCC#CCn1ccnc1 | 0.187 |
| O=C1CCCN1CC#CCn1cnc2ccccc21 | > 10 |
